Molecules are shown by their SMILES.

The data set in a line: gradient 5% acetonitrile 3 min, to 50% in 2 min, to 85% in 15 min, held 3 min, 100 µL/min. To be noted: column: Zorbax Extend-C18 2.1 x 50 mm; eluents: water / acetonitrile, 0.1% formic acid. The essentials: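 Over 3 months, pure standards in mixtures of ~100 molecules were run by HPLC coupled to a quadrupole time-of-flight mass spectrometer in positive and negative ionization mode. The column was a Zorbax Extend-C18 (2.1 × 50 mm, 1.8 μm) at 100 μL/min, eluted with water and acetonitrile each holding 0.1% formic acid, with 40 μL dead and 900 μL dwell volumes. Retention time was determined from adduct peaks chosen by software and checked manually.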
With `Cc1oc(-c2[nH]ncc2C(=O)N2CCCC2)cc1S(=O)(=O)Nc1ccccc1`, the RP-LC retention time is 685 s. As to `O=S(=O)(c1cccc(F)c1)N1CCC(Cc2nncn2-c2ccccc2)C1` (centres undefined), the RP-LC retention time is 752 s.

In turn, `Clc1ccc(-c2csc(Nc3c(Cl)cccc3Cl)n2)cc1Cl` came in with an RP-LC retention time of 1410 s. Then `O=c1n(Cc2ccc(F)cc2Cl)nc2n1CCCCC2`, with 751 s.

For the molecule `Cc1ccc(CNC(=O)C2CCCN(c3ncc(-c4cccc(F)c4)cn3)C2)o1` (centres undefined), the RP-LC retention time is 851 s.

`COc1ccc(CCNc2ncnc3c2cnn3-c2ccccc2)cc1OC` registered an RP-LC retention time of 783 s. Molecule `CCC(=O)N1CCc2cc(N3CC(C(=O)NC(C)C)CC3=O)ccc21` (centres undefined) registered an RP-LC retention time of 647 s. Turning to `COc1ccccc1CC(=O)N1CCN(c2ccc(-c3ccccn3)nn2)CC1`, the RP-LC retention time is 598 s. Then `CCN(CC)CCNC(=O)C1(O)c2cc(Br)ccc2NC(=O)N1c1cccc(OC)c1` (centres undefined), with 590 s; and `CNCCc1cnc(CCC(c2ccccc2)c2ccccc2)[nH]1`, with 608 s. Molecule `Cc1noc(C)c1CN1CCC(NC(=O)Cc2ccc(F)cc2)C1` (centres undefined) returned an RP-LC retention time of 597 s. For `Cc1cc(C)nc(NS(=O)(=O)c2ccc(Nc3nc(-c4ccc(F)c(C)c4)cs3)cc2)n1`, the RP-LC retention time amounted to 1000 s.

Regarding `CC(=O)N1CCc2cc(N3CC(C(=O)Nc4cccc(Br)c4)CC3=O)ccc21` (centres undefined), the RP-LC retention time is 780 s.

`COc1ccc(N2CCN(CC(=O)Nc3ccc4c(c3)Cc3ccccc3-4)C2=O)cc1` returned an RP-LC retention time of 915 s. Then `O=C(CCC1CCCN(c2cc(NC3CC3)ncn2)C1)NCc1ccccn1` (centres undefined), with 558 s; and `CCN(CC)C(=O)c1cnc2nc(C)ccc2c1Nc1ccc(S(N)(=O)=O)cc1`, with 574 s. Molecule `COc1ccc(-n2ccn3cc(-c4ccc5c(c4)OCO5)nc3c2=O)cc1` showed an RP-LC retention time of 766 s. Turning to `COc1ccc(CC(C)(O)CNC(=O)c2cc(Br)ccc2Cl)cc1` (centres undefined), the RP-LC retention time stood at 822 s. Turning to `Cc1cc(Cl)ccc1NS(=O)(=O)c1cc(-c2nc(C(C)(C)C)cs2)cs1`, the RP-LC retention time came to 1360 s. Molecule `COc1ccc(Cl)c2c(=O)c3c([nH]c12)CCN(CC(=O)Nc1ccc(C)c(Cl)c1)C3` came in with an RP-LC retention time of 762 s. `CCOC(=O)C1=C(N)Oc2c(c(=O)[nH]c3ccc(C)cc23)C1c1ccc(OC)cc1` (centres undefined) yielded an RP-LC retention time of 881 s.

As for `CCOc1cccc(-c2noc(CN3C(=O)COc4cc(C)ccc43)n2)c1`, the RP-LC retention time amounted to 1130 s. Then `COc1ccc(NC(=O)c2c(O)c3cccnc3n(-c3cccc(F)c3)c2=O)cc1Cl`, with 1280 s. The molecule `CCCNC(=O)CCc1ccc2nc(-c3ccccc3)[nH]c2c1` gave an RP-LC retention time of 593 s. Regarding `CCCc1cc(N2CCN(C(=O)c3ccc4c(c3)OCO4)CC2)nc2nncn12`, the RP-LC retention time came out at 622 s. Molecule `CCCN1CCCCc2cc(C(=O)NCC(C)C)sc21` displayed an RP-LC retention time of 1100 s.

`COc1ccc(Cl)cc1NC(=O)Cn1nc2c(N3CCCCCC3)nccn2c1=O` had an RP-LC retention time of 804 s. For `CCCN1CCN(CCCNC(=O)C2CCCN(S(=O)(=O)c3ccc4c(ccn4C)c3)C2)CC1` (centres undefined) the value was 598 s; for `CC1=C(c2ccc(C)cc2)S(=O)(=O)N=C1N1CCCN(C(=O)CCC(C)C)CC1`, 888 s; for `CC(C)(C)c1ccc(-c2nc(C3CC(=O)N(c4ccc(F)cc4)C3)no2)cc1` (centres undefined), 1250 s. The molecule `CCC[C@@H]1C[C@@H](C(=O)N[C@@H]([C@H]2O[C@H](SC)[C@H](O)[C@@H](O)[C@@H]2O)[C@@H](C)O)N(C)C1` returned an RP-LC retention time of 595 s. Then `Cc1ccc(C(=O)N2C[C@@H]3C[C@H]2C[C@@H]3NS(=O)(=O)c2ccccc2)cn1`, with 615 s; and `Cc1nc2c(sc3nc(-c4ccccc4)ccc32)c(=O)n1CC(=O)NCc1ccccc1Cl`, with 1030 s; and `CCCCCn1c(=O)c2ccccc2n(Cc2nc(-c3ccc4c(c3)OCO4)no2)c1=O`, with 1180 s. Molecule `Cc1ccc(CN2CCC(CNC(=O)c3c(C)oc4ncnc(N5CCOCC5)c34)C2)cc1` (centres undefined) displayed an RP-LC retention time of 853 s.

For `CCCN(CC1CCOC1)C(=O)NCc1ccc(F)cc1` (centres undefined), the RP-LC retention time was 758 s.

Turning to `COc1ccc(-c2cn3c(CCC(=O)Nc4ccc5c(c4)OCCO5)csc3n2)cc1`, the RP-LC retention time is 678 s. For `CC(C)n1c(=O)sc2cc(S(=O)(=O)N3CCC(C(=O)N(C)Cc4ccccc4)CC3)ccc21`, the RP-LC retention time worked out at 997 s. `Cn1c(=O)sc2cc(S(=O)(=O)N3CCC(C(=O)NC4CCCC4)CC3)ccc21`: the RP-LC retention time was 777 s. `CN1C(=O)CCc2cc(NC(=O)c3cccs3)ccc21` had an RP-LC retention time of 671 s.

`O=C(CN1C(=O)CCCc2cc(S(=O)(=O)N3CCCCCC3)ccc21)Nc1ccc(F)cc1F` showed an RP-LC retention time of 962 s.

`Cc1nc(-c2csc(S(=O)(=O)N3CCC(C(=O)NCc4ccc(F)cc4)CC3)c2)no1` showed an RP-LC retention time of 981 s. `Cc1ccc(C)c(CS(=O)(=O)NCCc2cn(CC(C)C)c3ncccc23)c1` registered an RP-LC retention time of 1070 s. Consider `CCOc1ccc(NC(=O)CSc2ccc(S(=O)(=O)c3ccccc3)nn2)cc1`, for which the RP-LC retention time was 906 s. The molecule `COc1ccccc1CNS(=O)(=O)c1ccc2c(c1)CCCC(=O)N2` came in with an RP-LC retention time of 721 s. `CC(C(=O)N1CCN(Cc2ccccc2)CC1)N1C(=O)CCCc2ccccc21` (centres undefined) yielded an RP-LC retention time of 644 s. In turn, `CCCn1nc(CNC(=O)c2cccc3[nH]ccc23)c2ccccc21` came in with an RP-LC retention time of 813 s. Regarding `CCc1nnc2ccc(-c3noc(CNC(=O)c4ccccc4)n3)cn12`, the RP-LC retention time is 651 s. Molecule `COCCCNC(=O)CCCn1c(=O)c2cccn2c2ccccc21` returned an RP-LC retention time of 682 s.

Regarding `Cc1cc(=O)n(CC(=O)NCc2ccc(F)cc2F)c(N)n1`, the RP-LC retention time came to 596 s. Consider `COC(=O)c1ccc(-c2nc3cnccn3c2NC2CCCC2)cc1`, for which the RP-LC retention time is 877 s. On to `O=C(CCc1c(-c2ccccc2)nc2ccccn12)NC1CCCCCC1`, for which the RP-LC retention time was 666 s.

Molecule `CCn1cc(C(CNC(=O)Nc2cccc(SC)c2)c2cccnc2)c2ccccc21` (centres undefined) yielded an RP-LC retention time of 786 s. Take `Cc1sc(NC(=O)c2ccc(Br)cc2)nc1-c1ccc2c(c1)NC(=O)CO2`: the RP-LC retention time came out at 972 s. As for `CS(=O)(=O)N1CC(C(=O)Nc2ccccc2-c2ccccc2)Oc2ccccc21` (centres undefined), the RP-LC retention time was 1090 s. The molecule `CCCc1cc(N2CCN(C(=O)Cc3ccsc3)CC2)nc2nnc(CC)n12` registered an RP-LC retention time of 649 s. `O=C(C1=CN(c2ccc(F)cc2)c2cc(F)ccc2S1(=O)=O)N1CCCC1` came in with an RP-LC retention time of 748 s.

Regarding `CC(C)c1ccc(CNC(=O)C2CCCN(c3cc(=O)n(C)c(=O)n3C)C2)cc1` (centres undefined), the RP-LC retention time is 781 s.

`Cn1cc2c3c(cccc31)CN(C(=O)c1ccc(F)c(Cl)c1)CC2` returned an RP-LC retention time of 1070 s. `CCCN1CCN(c2ccc(-c3nc(-c4ccccc4)no3)cn2)CC1` yielded an RP-LC retention time of 715 s. In turn, `CC1=NS(=O)(=O)N(C)C=C1C(=O)OCc1cc(C)ccc1C` gave an RP-LC retention time of 957 s. Then `CN1C(=O)Cc2cc(C(=O)NC3CCCCC3)ccc21`, with 692 s; and `CCn1cnc(S(=O)(=O)N2CCC(C(=O)Nc3ccc(C)cc3C)CC2)c1`, with 741 s; and `Cc1cccc(-c2noc(Cn3ncn4nc(-c5ccc(F)cc5)cc4c3=O)n2)c1`, with 1150 s. `CCOC(=O)c1nc(NCc2ccc3c(c2)OCO3)c2ccccc2n1`: the RP-LC retention time was 719 s.

On to `CC(C)NC(=O)N1CCCC1c1noc(COc2ccc(F)cc2)n1` (centres undefined), for which the RP-LC retention time amounted to 799 s. As for `Fc1cccc(-c2noc(Cc3nc(-c4ccc(Cl)cc4)cs3)n2)c1`, the RP-LC retention time stood at 1330 s. Molecule `CC(=O)NCc1nc(-c2ccc3c(c2)nc(C)c(=O)n3C2CCCC2)no1` registered an RP-LC retention time of 707 s.

Consider `O=C(Nc1nc(-c2ccc(Cl)cc2)cs1)c1ccc(COc2ccccc2Cl)o1`, for which the RP-LC retention time was determined as 1310 s.

Molecule `COc1ccc(-c2nc(NC3CCCCCC3)c3ccccc3n2)cc1` returned an RP-LC retention time of 934 s. On to `Cc1ccc(-c2nc3cnccn3c2Nc2ccccc2C)cc1`, for which the RP-LC retention time came out at 969 s. On to `COc1ccc(S(=O)(=O)N2CCCC(C(=O)NCC3CCCO3)C2)cc1Cl` (centres undefined), for which the RP-LC retention time turned out to be 785 s.

`Cc1ccnc(N2CCCC(C(=O)NCC3CCN(Cc4ccccc4F)CC3)C2)n1` (centres undefined): the RP-LC retention time turned out to be 608 s.

`Cc1ccc(-c2nnc(-c3ccccc3Cl)o2)cc1S(=O)(=O)N1CCOCC1` registered an RP-LC retention time of 969 s. The molecule `O=C(Cc1c[nH]c2ccccc12)N1CCN(C(=O)c2cc(-c3cccnc3)n[nH]2)CC1` returned an RP-LC retention time of 610 s. For `CC(C)NC(=O)c1ccc(OCC2CCCN(C(=O)c3ccc(C#N)cc3)C2)cc1` (centres undefined) the value was 800 s; for `CCOc1ccnc2c1c(=O)n(CC(=O)Nc1cccc(C(F)(F)F)c1)c(=O)n2C`, 782 s. For `COc1ccc(-c2cc(C(N)=O)c(C)n2C)cc1` the value was 729 s; for `O=C(Cc1ccsc1)N1CCC2(CC1)N=C(c1cccc(Br)c1)NO2`, 889 s.
